Measured values taken from PubChem BioAssay AID1963448 (Molecular Pharmacology Branch, DTP, NCI, 2024).

Test system: 616215-338-R-J1-PDC complex spheroid growth, % test/control
Experiment: Anticancer human tumor 616215-338-R-J1-PDC patient-derived colon adenocarcinoma cell line growth inhibition [Asc]
Details: for IC50: curve of first compound; for viability, T/C: stronger effect = lower value; active = viability on the fitted dose curve at most 10% of control; inactive = the rest
Protocol: Multicellular complex tumor spheroid response to apoptosis pathway targeting inhibitors Alrizomadlin, Pelcitoclax, and Dasminapant in combination with a variety of drugs and investigational agents in selected tumor cell lines
The MDM2 inhibitor alrizomadlin, the Bcl-2/Bcl-xL inhibitor pelcitoclax, and the IAPs inhibitor dasminapant were evaluated both individually and in combination with standard of care and investigational anticancer small molecules within a complex spheroid model of solid tumors. . Complex spheroids include a stromal component modeled by human endothelial cells (HUVEC) and fibroblasts modeled by human mesenchymal stem cells (MSCs). The concentration ranges selected for each drug and investigational agent were based upon clinically achievable concentrations if the clinical Cmax of the agent was known.
Compounds. The drugs and investigational agents: alrizomadlin (APG-115; NSC831270), pelcitoclax (APG-1252; NSC835773), dasminapant (APG-1387;NSC834197), TAK-243 (NSC785004), copanlisib (NSC809693), olaparib (NSC753686), talazoparib (NSC767125), cobimetinib (NSC 768068), eltanexor (KPT-8602, NSC 794443), abemaciclib (NSC 768073), sotorasib (NSC818433), adagrasib (NSC 831453), MRTX-1133 (NSC 836407), Iadademestat (ORY1001, NSC 806812), and RMC-4630 (NSC839698), were obtained from the NCI Developmental Therapeutics Program Chemical Repository. The FDA-approved anticancer drug set is available from the Developmental Therapeutics Program at https://dtp.cancer.gov/organization/dscb/obtaining/available plates.htm. […] The stock solutions were prepared in dimethyl sulfoxide (DMSO, Sigma-Aldrich, St. Louis, MO, cat. D2650) at 800-fold the tested concentration and stored at -70 degrees C prior to their use. All drugs and investigational agents were tested over a range starting from a high concentration at or near the clinical Cmax and decreasing in half-log increments. If the clinical Cmax for an agent had not been determined, the highest concentration tested was 10 microM.
The patient-derived cancer (PDC) cell lines include five colon adenocarcinomas: 186277-243-T-J2-PDC, 616215-338-R-J1-PDC, 439559-082-T-J2-PDC, 463943-066-T-J2-PDC, and 519858-162-T-J1-PDC; three pancreatic carcinomas: 323965-272-R-J2-PDC, 521955-158-R6-J3-PDC, and 521955-158-R2-J5-PDC; two uterine sarcomas: 327498-152-R-J2-PDC and 993429-296-R-J1-PDC; two rhabdomyosarcomas: 755483-174-R-J1-PDC and 772245-204-R-J1-PDC; two soft tissue sarcomas: 126254-015-R-J1-PDC and 494315-158-R-J1-PDC; two malignant fibrous histiocytomas: 317291-083-R-J1-PDC and 596521-263-R-J1-PDC; two breast carcinomas: 171881-019-R-J1-PDC and 885512-296-R-J2-PDC; and one ovarian carcinoma: 6556581-035-R-J-PDC were obtained from the NCI PDMR, (https://pdmr.cancer.gov). The established cell lines HSSY-2 synovial sarcoma (RRID:CVCL 8719), SYO-1 synovial sarcoma (RRID:CVCL_7146), MPNST malignant peripheral neural sheath tumor were obtained from the Sloan Kettering Institute. The following established cell lines were purchased from the American Type Culture Collection (ATCC, Manassas, VA), Sor the received from the NCI repository:, PANC-1 pancreatic carcinoma (CRL-1469, RRID:CVCL_0480), OVCAR-5 ovarian carcinoma (RRID:CVCL_1628), OVCAR-8 ovarian carcinoma (RRID:CVCL_1629), , MCF-7 breast carcinoma (CRL-12584, RRID:CVCL_0031), MDA-MB-231 breast carcinoma (CRL-12532, RRID:CVCL_0062), NCI-H1876 small cell lung carcinoma (CRL-5902, RRID:CVCL_1503), NCI-H510A small cell lung carcinoma (HTB-184, RRID:CVCL_1565), NCI-H1417 (CRL-5869, RRID:CVCL_1469), and NCI-H196 small cell lung carcinoma (CRL-5823, RRID:CVCL_1509). Dr. Peter Houghton (Greehey Children's Cancer Research Institute, University of Texas Health Science Center, San Antonio, TX) provided Rh-18 rhabdomyosarcoma (RRID:CVCL_1659). Pooled donor human umbilical vein endothelial cells (HUVEC, Lonza, cat. CC-2519) and human mesenchymal stem cells (hMSC, Lonza, cat. PT-2501) were purchased from Lonza (Walkersville, MD).
Cell Culture. […]
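Also: spheroids exposed to agents for seven days before readout.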
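For viability, T/C in this document: 100% = DMSO vehicle control viability.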

Cc1nc(N2CCC3(CC2)COC(C)C3N)c(CO)nc1Sc1ccnc(N)c1Cl (configuration not stated) + CNC(C)C(=O)NC1CN(S(=O)(=O)c2cccc(S(=O)(=O)N3CCC4CCC(C(=O)NC(c5ccccc5)c5ccccc5)N4C(=O)C(NC(=O)C(C)NC)C3)c2)CCC2CCC(C(=O)NC(c3ccccc3)c3ccccc3)N2C1=O
1770 nM: IC50 (second compound 1 µM)
969 nM: IC50 (second compound 0.00316 µM)
534 nM: IC50 (second compound 0.01 µM)
inactive: viability, T/C (second compound 0.00316 µM, first compound 0.00949 µM) 96.8% | viability, T/C (second compound 0.00316 µM, first compound 0.03 µM) 104% | viability, T/C (second compound 0.00316 µM, first compound 0.0949 µM) 89.7% | viability, T/C (second compound 0.00316 µM, first compound 0.3 µM) 99.3% | viability, T/C (second compound 0.00316 µM, first compound 0.949 µM) 50.8% | viability, T/C (second compound 0.01 µM, first compound 0.00949 µM) 87.2% | viability, T/C (second compound 0.01 µM, first compound 0.03 µM) 94.1% | viability, T/C (second compound 0.01 µM, first compound 0.0949 µM) 99.7% | viability, T/C (second compound 0.01 µM, first compound 0.3 µM) 85.3% | viability, T/C (second compound 0.01 µM, first compound 0.949 µM) 14.7% | viability, T/C (second compound 0.0316 µM, first compound 0.00949 µM) 99.4% | viability, T/C (second compound 0.0316 µM, first compound 0.03 µM) 68.4% | viability, T/C (second compound 0.0316 µM, first compound 0.0949 µM) 104% | viability, T/C (second compound 0.0316 µM, first compound 0.3 µM) 98.4% | viability, T/C (second compound 0.0316 µM, first compound 0.949 µM) 54.9% | viability, T/C (second compound 0.0316 µM, first compound 3 µM) 11.4% | viability, T/C (second compound 0.1 µM, first compound 0.00949 µM) 103% | viability, T/C (second compound 0.1 µM, first compound 0.03 µM) 85.1% | viability, T/C (second compound 0.1 µM, first compound 0.0949 µM) 94% | viability, T/C (second compound 0.1 µM, first compound 0.3 µM) 115% | viability, T/C (second compound 0.1 µM, first compound 0.949 µM) 40.3% | viability, T/C (second compound 0.316 µM, first compound 0.00949 µM) 92.2% | viability, T/C (second compound 0.316 µM, first compound 0.03 µM) 78.3% | viability, T/C (second compound 0.316 µM, first compound 0.0949 µM) 98.2% | viability, T/C (second compound 0.316 µM, first compound 0.3 µM) 68.3% | viability, T/C (second compound 0.316 µM, first compound 0.949 µM) 29.9% | viability, T/C (second compound 0.316 µM, first compound 3 µM) 11.6% | viability, T/C (second compound 1 µM, first compound 0.00949 µM) 83.1% | viability, T/C (second compound 1 µM, first compound 0.03 µM) 88.3% | viability, T/C (second compound 1 µM, first compound 0.0949 µM) 103% | viability, T/C (second compound 1 µM, first compound 0.3 µM) 92.5% | viability, T/C (second compound 1 µM, first compound 0.949 µM) 101% | viability, T/C (second compound 1 µM, first compound 3 µM) 12.8%
1080 nM: IC50 (second compound 0.0316 µM)
530 nM: IC50 (second compound 0.316 µM)
784 nM: IC50 (second compound 0.1 µM)
active: viability, T/C (second compound 0.00316 µM, first compound 3 µM) 8.66% | viability, T/C (second compound 0.01 µM, first compound 3 µM) 7.72% | viability, T/C (second compound 0.1 µM, first compound 3 µM) 9.21%
